These results are taken from PMC2120771 (The Journal of Cell Biology, 1996).

Test [1] relates to Listeria monocytogenes. As to conditions: microinjection; ref Southwick and Purich, 1995; cited from earlier work.
The subject of test [2] is Shigella flexneri M90T. The test is described as follows: Shigella intracellular motility in PtK2 cells before and after microinjection. Format: cell-based.
In test [3] the test system is profilin-VASP. As to conditions: in vitro; ref Reinhard et al., 1995; cited from earlier work.
The mark [4] stands for this setting: intracellular concentration 10 μM.
Where [5] appears, read: intracellular 80 nM, 2-4 min after microinjection.

Consider YDPAPPPPPP [mosquito oostatic factor], for which the “Effect on Listeria locomotion” value in test [1] is given as “inhibits Listeria locomotion”.

Regarding “VKSKIGSTDNIKYZPKGG [MAP-2 peptide, reference compound]”, the Postinjection/preinjection velocity in test [2] (setting [4]) is recorded as 1.00.

(GPPPPP)3 [VASP peptide]: in test [2] (PtK2 cells, microinjection, estimated intracellular concentration), the “Intracellular concentration that inhibits Shigella movement” value was 10 µM. This substance also showed a Postinjection/preinjection velocity in test [2] (setting [4]) of 0.15. In addition, the Postinjection velocity in test [2] (intracellular concentration 10 μM, mean, SD) is 0.02 - 0.05 μm/s. Besides, the “Effect on Shigella motility” value in test [2] (intracellular concentrations 2 and 6 μM (Fig. 7 B), large standard deviations) is listed as “variable inhibition”. In test [3], the “Dissociation of profilin from VASP” value is reported as “can dissociate profilin from VASP in vitro”.

On to CFEFPPPPTDE [Act A peptide], for which the “Time after injection at which bacterial motility ceases” value in test [2] (800 nM needle concentration, estimated intracellular concentration 80 nM) was at most 30 s. Moreover, the “Time after injection at which phase-dense actin tails disappear” value in test [2] (estimated intracellular concentration 80 nM) is listed as at most 30 s. Moreover, in test [2] (setting [5]), the “Fraction of bacteria that resume migration” value is recorded as “One quarter” and the “Rate of resumed movement relative to velocities measured before injection” value is reported as 25-30%. Also, the “Effect on Shigella intracellular movement” value in test [2] (intracellular concentration 8 nM (Fig. 5 B)) was “fails to inhibit”. In test [2] (intracellular concentration 80 nM), this substance had a Postinjection/preinjection velocity of 0.07. For the same substance, the “Effect on Shigella intracellular movement” value in test [2] (intracellular concentrations 400-800 nM (Fig. 5 B)) is given as “consistently block intracellular movement”.

Turning to poly-L-proline [reference compound], the “Effect on Shigella velocity” value in test [2] (increasing intracellular concentrations (Fig. 8 A), each point mean of 20-40 velocity measurements) is recorded as “dose-dependent slowing of bacterial velocity”.
